US9597327B2, “Synthesis of (R)-N-methylnaltrexone” (Progenics Pharmaceuticals, Inc., priority 2005, dated 2017)
Where a name gives a salt, the structure may show the parent alone.

Assays:
[1] = opioid agonist / antagonist character of the MNTX stereoisomers (stated, no method given); settings: statement in words, no assay described
chronic opioid user = settings: intravenously; subjects receiving opioids chronically; cited from earlier work

| SMILES | opioid activity (agonist or antagonist) [1] | dose required to induce immediate laxation (chronic opioid user) |
| --- | --- | --- |
| C[N+]1(CC2CC2)CC[C@]23c4c5ccc(O)c4O[C@H]2C(=O)CC[C@@]3(O)[C@H]1C5 (stereo partly drawn) [R-MNTX, morphinanium, 17R, 17-(cyclopropylmethyl)-4,5-epoxy-3,14-dihydroxy-17-methyl-6-oxo-, salt, (5α)-(9Cl)] | opioid antagonist | – |
| C[N@@+]1(CC2CC2)CC[C@]23c4c5ccc(O)c4OC2C(=O)CCC3(O)C1C5 (stereo partly drawn) [S-MNTX] | opioid agonist | – |
| C[N+]1(CC2CC2)CC[C@]23c4c5ccc(O)c4O[C@H]2C(=O)CC[C@@]3(O)[C@H]1C5 (stereo partly drawn) [MNTX, Methylnaltrexone] | – | about 0.15 mg/kg |
